The values that follow come from ChEMBL document CHEMBL1128041, “Thiophene derivatives as extremely high affinity P3 ligands for the hydroxyethylpiperazine class of HIV-1 protease inhibitors” (Bioorg Med Chem Lett, 1995).

Each structure is given as a SMILES string. Converted amounts (≈) assume the structure as drawn.

The nature of data set [1]: Solubility at pH 5.2. Type of data set: physicochemical. As to conditions: buffer.
A short description of data set [2]: Solubility at pH 7.4. Format: physicochemical. The note with it: buffer.
In data set [3] the test system is MT4. Description: Compound was tested in vitro for antiviral activity against MT-4 human lymphoid cells infected with the HIV IIIb isolate. Type of data set: functional. As to conditions: read-out: CIC95.
In data set [4] the test system is MT4. Description: Compound was tested in vitro for antiviral activity against MT-4 human lymphoid cells infected with the HIV IIIb isolate; value ranges from 25-50. Format: functional. The note with it: read-out: CIC95.
Data set [5] in a line: Maximal plasma concentration was determined. Type of data set: ADME, organism-based. As to conditions: rat.
The target of data set [6] is Human immunodeficiency virus type 1 protease (Human immunodeficiency virus 1, UniProt Q72874). In words: Inhibition of HIV-1 Protease.

For `CC(C)[C@@H]1[C@H](OC(=O)N[C@@H](Cc2ccccc2)[C@H](O)CN2CCN(Cc3cc(Br)cs3)C[C@H]2C(=O)NC(C)(C)C)CCS1(=O)=O`, the solubility – broadly, the concentration that dissolves in the medium under given conditions – in data set [1] was 37.2 µg/mL (≈ 51.1 µM); in data set [2], under 0.08 µg/mL. The IC95 in the data set on MT4 [3] came out at 25 nM. Turning to `CC(C)[C@@H]1[C@H](OC(=O)N[C@@H](Cc2ccccc2)[C@H](O)CN2CCN(Cc3cc4ccccc4s3)C[C@H]2C(=O)NC(C)(C)C)CCS1(=O)=O`, the IC95 in the data set with MT4 [3] came to 100 nM. With `CC(C)[C@@H]1[C@H](OC(=O)N[C@@H](Cc2ccccc2)[C@H](O)CN2CCN(Cc3cc4ccsc4s3)C[C@H]2C(=O)NC(C)(C)C)CCS1(=O)=O`, the solubility in data set [1] stood at 11.1 µg/mL (≈ 15.7 µM); in data set [2], 0.1 µg/mL (≈ 0.142 µM). In addition, in the data set on MT4 [3], the IC95 was determined as 12 nM. For `CC(C)[C@@H]1[C@H](OC(=O)N[C@@H](Cc2ccccc2)[C@H](O)CN2CCN(Cc3ccc(-c4cccs4)s3)C[C@H]2C(=O)NC(C)(C)C)CCS1(=O)=O`, the IC95 with MT4 [3] came to 50 nM. The same measure, in the same setting: the value for `CCc1ccc(CCN2CCN(C[C@@H](O)[C@H](Cc3ccccc3)NC(=O)O[C@@H]3CCS(=O)(=O)[C@@H]3C(C)C)[C@H](C(=O)NC(C)(C)C)C2)s1` was 50 nM. Take `CC(C)[C@@H]1[C@H](OC(=O)N[C@@H](Cc2ccccc2)[C@H](O)CN2CCN(CCc3cccs3)C[C@H]2C(=O)NC(C)(C)C)CCS1(=O)=O`: the IC95 in the data set with MT4 [4] came out at 25 nM. For the same compound, the results for the solubility in data set [1] and in data set [2] were 1270 µg/mL (≈ 1920 µM) and 91.3 µg/mL (≈ 138 µM), respectively. In data set [5], the Cmax (usually the highest concentration seen after dosing) is over 1000 nM. For the compound `CC(C)[C@@H]1[C@H](OC(=O)N[C@@H](Cc2ccccc2)[C@H](O)CN2CCN(Cc3cc4sccc4s3)C[C@H]2C(=O)NC(C)(C)C)CCS1(=O)=O`, the solubility in data set [1] is 6.9 µg/mL (≈ 9.79 µM); in data set [2], under 0.05 µg/mL. In addition, the IC95 in the data set on MT4 [3] turned out to be 6 nM. For the compound `CC(C)[C@@H]1[C@H](OC(=O)N[C@@H](Cc2ccccc2)[C@H](O)CN2CCN(Cc3ccc(Br)s3)C[C@H]2C(=O)NC(C)(C)C)CCS1(=O)=O`, the IC95 with MT4 [3] was 100 nM. The same measure, in the same setting: the value for `Cc1cc(CN2CCN(C[C@@H](O)[C@H](Cc3ccccc3)NC(=O)O[C@@H]3CCS(=O)(=O)[C@@H]3C(C)C)[C@H](C(=O)NC(C)(C)C)C2)cc(Cl)n1` was 25 nM.

Turning to `CC(C)[C@@H]1[C@H](OC(=O)N[C@@H](Cc2ccccc2)[C@H](O)CN2CCN(Cc3ccsc3)C[C@H]2C(=O)NC(C)(C)C)CCS1(=O)=O`, in the data set on MT4 [3], the IC95 is 50 nM. On the same count and under the same terms, the value for `CC(C)[C@@H]1[C@H](OC(=O)N[C@@H](Cc2ccccc2)[C@H](O)CN2CCN(CCc3ccsc3)C[C@H]2C(=O)NC(C)(C)C)CCS1(=O)=O` was 50 nM. For the compound `CC(C)[C@@H]1[C@H](OC(=O)N[C@@H](Cc2ccccc2)[C@H](O)CN2CCN(Cc3cccs3)C[C@H]2C(=O)NC(C)(C)C)CCS1(=O)=O`, in the data set on MT4 [4], the IC95 worked out at 25 nM.

Regarding `CC(C)[C@@H]1[C@H](OC(=O)N[C@@H](Cc2ccccc2)[C@H](O)CN2CCN(Cc3csc4ccc(Cl)cc34)C[C@H]2C(=O)NC(C)(C)C)CCS1(=O)=O`, the IC50 – broadly, the concentration needed to halve the response being measured – in data set [6] was found to be 0.47 nM. Also, the IC95 in the data set with MT4 [3] worked out at 100 nM.
